The target of this assay is T1, full-length beta-Catenin (Uniprot ID P35222) (Homo sapiens, UniProt P35222).
T1 construct: 10 nM full-length beta-Catenin (Uniprot ID P35222)
T1 sequence (P35222 1-781): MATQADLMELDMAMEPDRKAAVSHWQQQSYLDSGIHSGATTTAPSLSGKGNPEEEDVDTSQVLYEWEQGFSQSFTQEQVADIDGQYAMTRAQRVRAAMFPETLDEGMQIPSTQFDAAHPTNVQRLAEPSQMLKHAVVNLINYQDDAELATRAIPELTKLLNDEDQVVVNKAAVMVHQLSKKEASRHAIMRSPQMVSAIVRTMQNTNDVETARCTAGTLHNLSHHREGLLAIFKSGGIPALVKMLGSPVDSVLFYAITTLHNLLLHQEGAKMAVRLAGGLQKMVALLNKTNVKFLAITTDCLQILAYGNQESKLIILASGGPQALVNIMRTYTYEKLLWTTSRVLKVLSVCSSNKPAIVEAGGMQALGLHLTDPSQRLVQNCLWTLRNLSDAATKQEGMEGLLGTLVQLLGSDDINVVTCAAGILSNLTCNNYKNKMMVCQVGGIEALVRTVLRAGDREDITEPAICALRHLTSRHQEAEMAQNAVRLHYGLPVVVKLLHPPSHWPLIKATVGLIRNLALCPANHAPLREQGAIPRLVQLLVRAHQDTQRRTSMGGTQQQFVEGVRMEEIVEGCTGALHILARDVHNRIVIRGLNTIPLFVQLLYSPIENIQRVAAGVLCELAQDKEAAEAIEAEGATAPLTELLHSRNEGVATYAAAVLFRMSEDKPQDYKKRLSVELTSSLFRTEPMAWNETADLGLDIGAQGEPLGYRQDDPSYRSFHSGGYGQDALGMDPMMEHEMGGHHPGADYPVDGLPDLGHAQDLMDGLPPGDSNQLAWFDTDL
Kind of assay: Fluorescence polarization IC50 (beta-catenin / 5FAM-TCF4 10-53 competition). It is filed as binding. The settings on record: fluorescence polarization; read-out: beta-Catenin FP IC50.

Usually IC50 stands for the concentration that gives 50% inhibition. As to `CC(=O)N1CCC[C@]12CCCCCCC1(CCCCCCCCOC(=O)N3CC[C@@](C(=O)N[C@@H](Cc4ccccc4Cl)C(=O)N[C@@H](Cc4csc5ccccc45)C(=O)N[C@@H](CCO)C(N)=O)(C3)NC(=O)[C@H](CCO)NC(=O)[C@H](Cc3ccccc3)NC(=O)[C@H](C)NC(=O)[C@H](C)NC(=O)[C@H](CN(CC(=O)O)CC(F)(F)F)NC(=O)[C@H](CC(=O)O)NC1=O)NC(=O)[C@H](CC(C)(C)C)NC(=O)[C@H](CC(=O)O)NC2=O` (stereo partly drawn) [I-1699, Ac-PL3-Asp-Npg-B5-Asp-TfeGA-Ala-Ala-Phe-Hse-PyrS2-2C1F-BztA-Hse-NH2], the IC50 was determined as 533 nM.

In the case of `CC(=O)N1CCC[C@]12CC=CCCCC1(CCCC=CCCCOC(=O)N3CC[C@@](C(=O)N[C@@H](CC4CCCC4)C(=O)N[C@@H](Cc4csc5ccccc45)C(=O)N[C@@H](CCC(N)=O)C(N)=O)(C3)NC(=O)[C@H](CC(C)C)NC(=O)[C@H](Cc3ccccc3)NC(=O)[C@H](C)NC(=O)[C@H](C)NC(=O)[C@H](CN(CC(=O)O)CC(F)(F)F)NC(=O)[C@H](CC(=O)O)NC1=O)NC(=O)[C@H](CC(C)(C)C)NC(=O)[C@H](CC(=O)O)NC2=O` (stereo partly drawn) [I-1703, Ac-PL3-Asp-Npg-B5-Asp-TfeGA-Ala-Ala-Phe-Leu-PyrS2-CypA-BztA-Gln-NH2], the IC50 worked out at 24 nM.

For the compound `CC(=O)N1CCC[C@]12CCCCCCC1(CCCCCCCCOC(=O)N3CC[C@@](C(=O)N[C@@H](Cc4ccccc4C#N)C(=O)N[C@@H](Cc4csc5ccccc45)C(=O)N[C@@H](CCC(N)=O)C(N)=O)(C3)NC(=O)[C@H](CC(C)C)NC(=O)[C@H](Cc3ccccc3)NC(=O)[C@H](C)NC(=O)[C@H](C)NC(=O)[C@H](CN(CC(=O)O)CC(F)(F)F)NC(=O)[C@H](CC(=O)O)NC1=O)NC(=O)[C@H](CC(C)(C)C)NC(=O)[C@H](CC(=O)O)NC2=O` (stereo partly drawn) [I-1712, Ac-PL3-Asp-Npg-B5-Asp-TfeGA-Ala-Ala-Phe-Leu-PyrS2-2CNF-BztA-Gln-NH2], the IC50 came to 597 nM.

Turning to `CC(=O)N1CCC[C@]12CCCCCCC1(CCCCCCCCOC(=O)N3CC[C@@](C(=O)N[C@@H](Cc4ccsc4)C(=O)N[C@@H](Cc4csc5ccccc45)C(=O)N[C@@H](CC(N)=O)C(N)=O)(C3)NC(=O)[C@H](CC(C)C)NC(=O)[C@H](Cc3ccccc3)NC(=O)[C@H](C)NC(=O)[C@H](C)NC(=O)[C@H](CN(CC(=O)O)CC(F)(F)F)NC(=O)[C@H](CC(=O)O)NC1=O)NC(=O)[C@H](CC(C)(C)C)NC(=O)[C@H](CC(=O)O)NC2=O` (stereo partly drawn) [I-1715, Ac-PL3-Asp-Npg-B5-Asp-TfeGA-Ala-Ala-Phe-Leu-PyrS2-3Thi-BztA-Asn-NH2], the half-inhibitory concentration (IC50) turned out to be 95 nM.

Take `CC(=O)N1CCC[C@]12CCCCCCC1(CCCCCCCCOC(=O)N3CC[C@@](C(=O)N[C@@H](Cc4ccsc4)C(=O)N[C@@H](Cc4csc5ccccc45)C(=O)N[C@H](C(N)=O)[C@@H](C)O)(C3)NC(=O)[C@H](CC(C)C)NC(=O)[C@H](Cc3ccccc3)NC(=O)[C@H](C)NC(=O)[C@H](C)NC(=O)[C@H](CN(CC(=O)O)CC(F)(F)F)NC(=O)[C@H](CC(=O)O)NC1=O)NC(=O)[C@H](CC(C)(C)C)NC(=O)[C@H](CC(=O)O)NC2=O` (stereo partly drawn) [I-1716, Ac-PL3-Asp-Npg-B5-Asp-TfeGA-Ala-Ala-Phe-Leu-PyrS2-3Thi-BztA-Thr-NH2]: the IC50 worked out at 224 nM.

As for `CC(=O)N1CCC[C@]12CCCCCCC1(CCCCCCCCOC(=O)N3CC[C@@](C(=O)N[C@@H](Cc4ccsc4)C(=O)N[C@@H](Cc4csc5ccccc45)C(=O)N[C@@H](Cc4ccccc4C(N)=O)C(N)=O)(C3)NC(=O)[C@H](CC(C)C)NC(=O)[C@H](Cc3ccccc3)NC(=O)[C@H](C)NC(=O)[C@H](C)NC(=O)[C@H](CN(CC(=O)O)CC(F)(F)F)NC(=O)[C@H](CC(=O)O)NC1=O)NC(=O)[C@H](CC(C)(C)C)NC(=O)[C@H](CC(=O)O)NC2=O` (stereo partly drawn) [I-1717, Ac-PL3-Asp-Npg-B5-Asp-TfeGA-Ala-Ala-Phe-Leu-PyrS2-3Thi-BztA-2cbmf-NH2], the IC50 is 249 nM.

As for `CC(=O)N1CCC[C@]12CCCCCCC1(CCCCCCCCOC(=O)N3CC[C@@](C(=O)N[C@@H](Cc4ccsc4)C(=O)N[C@@H](Cc4csc5ccccc45)C(=O)N[C@@H](Cc4cccc(C(N)=O)c4)C(N)=O)(C3)NC(=O)[C@H](CC(C)C)NC(=O)[C@H](Cc3ccccc3)NC(=O)[C@H](C)NC(=O)[C@H](C)NC(=O)[C@H](CN(CC(=O)O)CC(F)(F)F)NC(=O)[C@H](CC(=O)O)NC1=O)NC(=O)[C@H](CC(C)(C)C)NC(=O)[C@H](CC(=O)O)NC2=O` (stereo partly drawn) [I-1718, Ac-PL3-Asp-Npg-B5-Asp-TfeGA-Ala-Ala-Phe-Leu-PyrS2-3Thi-BztA-3cbmf-NH2], the IC50 was 382 nM.

Take `CC(=O)NCCCC[C@H](NC(=O)[C@H](Cc1csc2ccccc12)NC(=O)[C@H](Cc1ccsc1)NC(=O)[C@]12CCN(C1)C(=O)OCCCCCCCCC1(CCCCCC[C@]3(CCCN3C(C)=O)C(=O)N[C@@H](CC(=O)O)C(=O)N[C@@H](CC(C)(C)C)C(=O)N1)C(=O)N[C@@H](CC(=O)O)C(=O)N[C@@H](CN(CC(=O)O)CC(F)(F)F)C(=O)N[C@@H](C)C(=O)N[C@@H](C)C(=O)N[C@@H](Cc1ccccc1)C(=O)N[C@@H](CC(C)C)C(=O)N2)C(N)=O` (stereo partly drawn) [I-1719, Ac-PL3-Asp-Npg-B5-Asp-TfeGA-Ala-Ala-Phe-Leu-PyrS2-3Thi-BztA-AcLys-NH2]: the IC50 was 187 nM.

With `CC(=O)N1CCC[C@]12CCCCCCC1(CCCCCCCCOC(=O)N3CC[C@@](C(=O)N[C@@H](Cc4ccsc4)C(=O)N[C@@H](Cc4csc5ccccc45)C(=O)N[C@@H](C)C(N)=O)(C3)NC(=O)[C@H](CC(C)C)NC(=O)[C@H](Cc3ccccc3)NC(=O)[C@H](C)NC(=O)[C@H](C)NC(=O)[C@H](CN(CC(=O)O)CC(F)(F)F)NC(=O)[C@H](CC(=O)O)NC1=O)NC(=O)[C@H](CC(C)(C)C)NC(=O)[C@H](CC(=O)O)NC2=O` (stereo partly drawn) [I-1720, Ac-PL3-Asp-Npg-B5-Asp-TfeGA-Ala-Ala-Phe-Leu-PyrS2-3Thi-BztA-Ala-NH2], the IC50 worked out at 212 nM.

With `CC(=O)N1CCC[C@]12CC=CCCCC1(CCCC=CCCCOC(=O)N3CC[C@@](C(=O)N[C@@H](Cc4ccccc4Cl)C(=O)N[C@@H](Cc4csc5ccccc45)C(=O)N[C@@H](CCC(N)=O)C(N)=O)(C3)NC(=O)[C@H](CC(N)=O)NC(=O)[C@H](Cc3ccccc3N)NC(=O)[C@H](C)NC(=O)[C@H](C)NC(=O)[C@H](CC(=O)O)NC(=O)[C@H](CC(=O)O)NC1=O)NC(=O)[C@H](CC(C)(C)C)NC(=O)[C@H](CC(=O)O)NC2=O` (stereo partly drawn) [I-1727, Ac-PL3-Asp-Npg-B5-Asp-Asp-Ala-Ala-2NH2F-Asn-PyrS2-2C1F-BztA-Gln-NH2], the IC50 was found to be 28 nM.

On to `CC(=O)N1CCC[C@]12CC=CCCCC1(CCCC=CCCCOC(=O)N3CC[C@@](C(=O)N[C@@H](Cc4ccsc4)C(=O)N[C@@H](Cc4csc5ccccc45)C(=O)N[C@@H](CCC(N)=O)C(N)=O)(C3)NC(=O)[C@H](CC(N)=O)NC(=O)[C@H](Cc3ccccc3N)NC(=O)[C@H](C)NC(=O)[C@H](C)NC(=O)[C@H](CC(=O)O)NC(=O)[C@H](CC(=O)O)NC1=O)NC(=O)[C@H](CC(C)(C)C)NC(=O)[C@H](CC(=O)O)NC2=O` (stereo partly drawn) [I-1728, Ac-PL3-Asp-Npg-B5-Asp-Asp-Ala-Ala-2NH2F-Asn-PyrS2-3Thi-BztA-Gln-NH2], for which the IC50 is 14 nM.

On to `CC(=O)N(CC(=O)O)C[C@@H]1NC(=O)[C@H](CC(=O)O)NC(=O)C2(CCCC=CCCCOC(=O)N3CC[C@@](C(=O)N[C@@H](Cc4ccsc4)C(=O)N[C@@H](Cc4csc5ccccc45)C(=O)N[C@@H](CCC(N)=O)C(N)=O)(C3)NC(=O)[C@H](CC(C)C)NC(=O)[C@H](Cc3ccccc3)NC(=O)[C@H](C)NC(=O)[C@H](C)NC1=O)CCCC=CC[C@]1(CCCN1C(C)=O)C(=O)N[C@@H](CC(=O)O)C(=O)N[C@@H](CC(C)(C)C)C(=O)N2` (stereo partly drawn) [I-1729, Ac-PL3-Asp-Npg-B5-Asp-[Ac]GA-Ala-Ala-Phe-Leu-PyrS2-3Thi-BztA-Gln-NH2], for which the half-inhibitory concentration (IC50) amounted to 9 nM.

For the compound `CC(=O)N1CCC[C@]12CC=CCCCC1(CCCC=CCCCOC(=O)N3CC[C@@](C(=O)N[C@@H](Cc4ccsc4)C(=O)N[C@@H](Cc4csc5ccccc45)C(=O)N[C@@H](CCC(N)=O)C(N)=O)(C3)NC(=O)[C@H](CC(C)C)NC(=O)[C@H](Cc3ccccc3)NC(=O)[C@H](C)NC(=O)[C@H](C)NC(=O)[C@H](CN(CC(=O)O)C(=O)C(F)(F)F)NC(=O)[C@H](CC(=O)O)NC1=O)NC(=O)[C@H](CC(C)(C)C)NC(=O)[C@H](CC(=O)O)NC2=O` (stereo partly drawn) [I-1730, Ac-PL3-Asp-Npg-B5-Asp-[CF3CO]GA-Ala-Ala-Phe-Leu-PyrS2-3Thi-BztA-Gln-NH2], the IC50 was 38 nM.

On to `CC(=O)N1CCC[C@]12CC=CCCCC1(CCCC=CCCCOC(=O)N3CC[C@@](C(=O)N[C@@H](Cc4ccccc4)C(=O)N[C@@H](Cc4csc5ccccc45)C(=O)N[C@@H](CCC(N)=O)C(N)=O)(C3)NC(=O)[C@H](CC(N)=O)NC(=O)[C@H](Cc3ccccc3)NC(=O)[C@H](C)NC(=O)[C@H](C)NC(=O)[C@H]([C@@H](C)O)NC(=O)[C@H](CC(N)=O)NC1=O)NC(=O)[C@H](CC(C)(C)C)NC(=O)[C@H](CC(=O)O)NC2=O` (stereo partly drawn) [I-1735, Ac-PL3-Asp-Npg-B5-Asn-Thr-Ala-Ala-Phe-Asn-PyrS2-Phe-BztA-Gln-NH2], for which the half-inhibitory concentration (IC50) was determined as 667 nM.

For the origin of these results see patent publication US20240116985A1, “STAPLED PEPTIDES AND METHODS THEREOF” (priority 2020, published 2024).
